IC50 data for 19 compounds are collected here from patent publication US9133183B2, “Imidazolidinones and analogs exhibiting anti-cancer and anti-proliferative activities” (Deciphera Pharmaceuticals, LLC, priority 2013, dated 2015).

Assay [1] has as its system osteoclast precursors. The assay can be described thus: Osteoclast tartrate-resistant acid phosphatase assay. It counts as cell-based. The following applies: Osteoclast, 7-14 days, RANKL and M-CSF.
Assay [2] has as its system M-NFS-60 cells. The assay can be described thus: M-NFS-60 cell proliferation assay (resazurin). Format: cell-based. The following applies: 67 h incubation. The method, boiled down:
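Cells kept in medium containing 20 ng/mL mouse recombinant M-CSF. Fluorescence was read at ex 540/em 600 nm, and IC50 was fitted from percent inhibition across a range of inhibitor concentrations.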

The IC50 is the point on the concentration scale where inhibition reaches its midpoint. Take `Cn1cc(-c2cc(Oc3ccc(NC(=O)N4CCN(C5CCOC5)C4=O)nc3)ccn2)cn1` (stereo in doubt) [Example 12, (S)—N-(5-((2-(1-methyl-1H-pyrazol-4-yl)pyridin-4-yl)oxy)pyridin-2-yl)-2-oxo-3-(tetrahydrofuran-3-yl)imidazolidine-1-carboxamide]: the figures for the IC50 in assay [1] and in assay [2] were less than 10 nM and 10 to 100 nM, respectively.

For `Cc1nc(NC(=O)N2CCN(C3CCOCC3)C2=O)ccc1Oc1ccnc(-c2cnn(C)c2)c1` [Example 3, N-(6-methyl-5-((2-(1-methyl-1H-pyrazol-4-yl)pyridin-4-yl)oxy)pyridin-2-yl)-2-oxo-3-(tetrahydro-2H-pyran-4-yl)imidazolidine-1-carboxamide], the concentration for half-maximal inhibition (IC50) in assay [1] and in assay [2] was 10 to 100 nM in each case.

Regarding `CCn1cc(-c2cc(Oc3ccc(NC(=O)N4CCN(C5CCOCC5)C4=O)nc3)ccn2)cn1` [Example 4, N-(5-((2-(1-ethyl-1H-pyrazol-4-yl)pyridin-4-yl)oxy)pyridin-2-yl)-2-oxo-3-(tetrahydro-2H-pyran-4-yl)imidazolidine-1-carboxamide], the half-maximal inhibitory concentration (IC50) in assay [1] and in assay [2] was 10 to 100 nM in each case.

With `Cc1cc(-c2cc(Oc3ccc(NC(=O)N4CCN(C5CCOCC5)C4=O)nc3)ccn2)on1` [Example 7, N-(5-((2-(3-methylisoxazol-5-yl)pyridin-4-yl)oxy)pyridin-2-yl)-2-oxo-3-(tetrahydro-2H-pyran-4-yl)imidazolidine-1-carboxamide], the half-inhibitory concentration (IC50) in assay [1] and in assay [2] was 10 to 100 nM throughout.

Turning to `COCCN1CCN(C(=O)Nc2ccc(Oc3ccnc(-c4cnn(C)c4)c3)cn2)C1=O` [Example 10, 3-(2-methoxyethyl)-N-(5-((2-(1-methyl-11H-pyrazol-4-yl)pyridin-4-yl)oxy)pyridin-2-yl)-2-oxoimidazolidine-1-carboxamide], the IC50 in assay [1] and in assay [2] was 10 to 100 nM each time.

For `COCCCN1CCN(C(=O)Nc2ccc(Oc3ccnc(-c4cnn(C)c4)c3)cn2)C1=O` [Example 11, 3-(3-methoxypropyl)-N-(5-((2-(1-methyl-1H-pyrazol-4-yl)pyridin-4-yl)oxy)pyridin-2-yl)-2-oxoimidazolidine-1-carboxamide], the IC50 is less than 10 nM in assay [1] and 10 to 100 nM in assay [2].

In the case of `COC[C@H](C)N1CCN(C(=O)Nc2ccc(Oc3ccnc(-c4cnn(C)c4)c3)cn2)C1=O` [Example 16, (S)-3-(1-methoxypropan-2-yl)-N-(5-((2-(1-methyl-11H-pyrazol-4-yl)pyridin-4-yl)oxy)pyridin-2-yl)-2-oxoimidazolidine-1-carboxamide], the half-inhibitory concentration (IC50) is less than 10 nM in assay [1] and 10 to 100 nM in assay [2].

For `COCCCN1CCN(C(=O)Nc2ccc(Oc3ccnc(-c4cnn(C)c4)c3)c(C)n2)C1=O` [Example 19, 3-(3-methoxypropyl)-N-(6-methyl-5-((2-(1-methyl-1H-pyrazol-4-yl)pyridin-4-yl)oxy)pyridin-2-yl)-2-oxoimidazolidine-1-carboxamide], the half-maximal inhibitory concentration (IC50) in assay [1] and in assay [2] was 10 to 100 nM throughout.

As for `Cc1nc(NC(=O)N2CCN(C3COC3)C2=O)ccc1Oc1ccnc(-c2cnn(C)c2)c1` [Example 20, N-(6-methyl-5-((2-(1-methyl-1H-pyrazol-4-yl)pyridin-4-yl)oxy)pyridin-2-yl)-3-(oxetan-3-yl)-2-oxoimidazolidine-1-carboxamide], the IC50 in assay [1] and in assay [2] was 10 to 100 nM in each case.

As for `Cn1cc(-c2cc(Oc3ccc(NC(=O)N4CCN(CCOC(F)(F)F)C4=O)nc3)ccn2)cn1` [Example 21, N-(5-((2-(1-methyl-1H-pyrazol-4-yl)pyridin-4-yl)oxy)pyridin-2-yl)-2-oxo-3-(2-(trifluoromethoxy)ethyl)imidazolidine-1-carboxamide], the concentration for half-maximal inhibition (IC50) in assay [1] and in assay [2] was 10 to 100 nM in each case.

For `Cc1nc(NC(=O)N2CCN(C3CCCCC3)C2=O)ccc1Oc1ccnc(-c2cnn(C)c2)c1` [Example 22, 3-cyclohexyl-N-(6-methyl-5-((2-(1-methyl-1H-pyrazol-4-yl)pyridin-4-yl)oxy)pyridin-2-yl)-2-oxoimidazolidine-1-carboxamide], the half-maximal inhibitory concentration (IC50) in assay [1] and in assay [2] was less than 10 nM throughout.

`Cn1cc(-c2cc(Oc3ccc(NC(=O)N4CCN(C5CCC(F)(F)CC5)C4=O)nc3)ccn2)cn1` [Example 25, 3-(4,4-difluorocyclohexyl)-N-(5-((2-(1-methyl-1H-pyrazol-4-yl)pyridin-4-yl)oxy)pyridin-2-yl)-2-oxoimidazolidine-1-carboxamide]: the 50% inhibitory concentration (IC50) in assay [1] and in assay [2] was less than 10 nM each time.

In the case of `Cc1nc(NC(=O)N2CCN(C3CCC(F)(F)CC3)C2=O)ccc1Oc1ccnc(-c2cnn(C)c2)c1` [Example 26, 3-(4,4-difluorocyclohexyl)-N-(6-methyl-5-((2-(1-methyl-1H-pyrazol-4-yl)pyridin-4-yl)oxy)pyridin-2-yl)-2-oxoimidazolidine-1-carboxamide], the IC50 in assay [1] was 10 to 100 nM; in assay [2] it was less than 10 nM.

Turning to `Cc1nc(NC(=O)N2CCN(C(C)(C)C)C2=O)ccc1Oc1ccnc(-c2cnn(C)c2)c1` [Example 33, 3-(tert-butyl)-N-(6-methyl-5-((2-(1-methyl-1H-pyrazol-4-yl)pyridin-4-yl)oxy)pyridin-2-yl)-2-oxoimidazolidine-1-carboxamide], the IC50 in assay [1] and in assay [2] was 10 to 100 nM in each case.

Turning to `Cn1cc(-c2cc(Oc3ccc(NC(=O)N4CCN(C(C)(C)C)C4=O)nc3)ccn2)cn1` [Example 34, 3-(tert-butyl)-N-(5-((2-(1-methyl-1H-pyrazol-4-yl)pyridin-4-yl)oxy)pyridin-2-yl)-2-oxoimidazolidine-1-carboxamide], the 50% inhibitory concentration (IC50) in assay [1] and in assay [2] was 10 to 100 nM each time.

As to `Cc1nc(NC(=O)N2CCN(C(C)C)C2=O)ccc1Oc1ccnc(-c2cnn(C)c2)c1` [Example 35, 3-isopropyl-N-(6-methyl-5-((2-(1-methyl-1H-pyrazol-4-yl)pyridin-4-yl)oxy)pyridin-2-yl)-2-oxoimidazolidine-1-carboxamide], the concentration for half-maximal inhibition (IC50) in assay [1] is less than 10 nM; in assay [2], 10 to 100 nM.

On to `CC(C)N1CCN(C(=O)Nc2ccc(Oc3ccnc(-c4cnn(C)c4)c3)cn2)C1=O` [Example 36, 3-isopropyl-N-(5-((2-(1-methyl-1H-pyrazol-4-yl)pyridin-4-yl)oxy)pyridin-2-yl)-2-oxoimidazolidine-1-carboxamide], for which the IC50 in assay [1] and in assay [2] was less than 10 nM each time.

For the compound `[2H]C([2H])([2H])n1cc(-c2cc(Oc3ccc(NC(=O)N4CCN(CCOC)C4=O)nc3C)ccn2)cn1` [Example 39, 3-(2-methoxyethyl)-N-(6-methyl-5-((2-(1-(trideuteromethyl)-1H-pyrazol-4-yl)pyridin-4-yl)oxy)pyridin-2-yl)-2-oxoimidazolidine-1-carboxamide], the IC50 in assay [1] fell in the range of 10 to 100 nM; in assay [2], 100 to 1000 nM.

For the compound `Cc1nc(NC(=O)N2CCN(CC(F)(F)F)C2=O)ccc1Oc1ccnc(-c2cnn(C)c2)c1` [Example 43, N-(6-methyl-5-((2-(1-methyl-1H-pyrazol-4-yl)pyridin-4-yl)oxy)pyridin-2-yl)-2-oxo-3-(2,2,2-trifluoroethyl)imidazolidine-1-carboxamide], the IC50 in assay [1] and in assay [2] was less than 10 nM in each case.
